The record followed here is US4001218A, “Penicillins” (Bayer Aktiengesellschaft, priority 1972, dated 1977).

In assay [1] the test system is E. coli A 261. Nature of the assay: MIC, test tube series dilution test, E. coli A 261. To be noted: 24 hours, 37°C. It is filed as cell-based.
In assay [2] the test system is Proteus morg. 932. Description: MIC, test tube series dilution test, Proteus morg. 932. The class given is cell-based. Particulars: 24 hours, 37°C.
Assay [3] has as its system Psdm. aerug. Walter. Nature of the assay: MIC, test tube series dilution test, Psdm. aerug. Walter. The class given is cell-based, Pseudomonas aeruginosa. Particulars: for MIC: Psdm. aerug. Walter, 24 hours, 37°C.
For assay [4], the system named is Staph. aureus 133. The class given is cell-based, Staphylococcus aureus. To be noted: for MIC: Staph. aureus 133, 24 hours, 37°C; for Activity against Staph. aureus 133 (minimum inhibitory concentration): 24 hours' incubation.
In assay [5] the test system is Staph. aureus 1756. Description: MIC, test tube series dilution test, Staph. aureus 1756. The class given is cell-based, Staphylococcus aureus. To be noted: Staph. aureus 1756; 24 hours, 37°C.
For assay [6], the system named is Proteus vulg. 1017. It is filed as cell-based, Proteus vulgaris. To be noted: for MIC: Proteus 1017, 24 hours, 37°C; for Activity against Proteus vulg. 1017 (minimum inhibitory concentration): 24 hours' incubation.
Assay [7] relates to Klebsiella K 10. Nature of the assay: MIC, test tube series dilution test, Klebsiella K 10. The class given is cell-based. To be noted: 24 hours, 37°C.
For assay [8], the system named is Enterococcus 9790. Description: MIC, test tube series dilution test, Enterococcus 9790. The class given is cell-based. To be noted: 24 hours, 37°C.
Assay [9] relates to E. coli 14. It is filed as cell-based. To be noted: for MIC: E. coli 14, 24 hours, 37°C; for Activity against E. coli 14 (minimum inhibitory concentration): 24 hours' incubation.
Assay [10] deals with Psdm. aerug. F 41. Description: MIC, test tube series dilution test, Psdm. aerug. F 41. It is filed as cell-based, Pseudomonas aeruginosa. To be noted: for MIC: Psdm. aerug. F 41, 24 hours, 37°C; for Activity against Psdm. aerug. F 41 (minimum inhibitory concentration): 24 hours' incubation.
Assay [11] concerns Klebsiella 63. Description: MIC, test tube series dilution test, Klebsiella 63. It is filed as cell-based. To be noted: for Activity against Klebs. 63 (minimum inhibitory concentration): 24 hours' incubation.

As to `CC1(C)S[C@@H]2[C@H](NC(=O)[C@H](NC(=O)c3ccc(NC(=O)C4(O)CC4)cc3)c3ccccc3)C(=O)N2[C@H]1C(=O)O` [Example 2, sodium D(-)-α-(4-cyclopropanol-1-carbonyl-aminobenzoylamino)-benzylpenicillin], the MIC was greater than 256 U/ml in assay [1], greater than 256 U/ml in assay [2], greater than 256 U/ml in assay [3] and less than 1 U/ml in assay [4].
In the case of `CC1(C)S[C@@H]2[C@H](NC(=O)[C@H](NC(=O)c3ccc(NC(=O)C4CC4)c([N+](=O)[O-])c3)c3ccccc3)C(=O)N2[C@H]1C(=O)O` [Example 4, sodium D(-)-α-(4-cyclopropanecarbonylamino-3-nitro-benzoylamino)-benzylpenicillin], the MIC in assay [1] is on record as greater than 256 U/ml; in [2], greater than 256 U/ml; in [4], less than 1 U/ml.
With `CC(C)(CN=[N+]=[N-])C(=O)Nc1ccc(C(=O)N[C@@H](C(=O)N[C@@H]2C(=O)N3[C@@H]2SC(C)(C)[C@@H]3C(=O)O)c2ccccc2)cc1` [Example 39], the MIC in [1] is greater than 256 U/ml; in assay [5], ~ 64 U/ml; in [4], less than 1 U/ml.
Turning to `COCC(=O)Nc1ccc(C(=O)N[C@@H](C(=O)N[C@@H]2C(=O)N3[C@@H]2SC(C)(C)[C@@H]3C(=O)O)c2ccccc2)cc1` [Example 42], the MIC is on record as greater than 256 U/ml in [6], greater than 256 U/ml in assay [7], less than 1 U/ml in assay [4] and ~ 4 U/ml in assay [8].
Regarding `CNc1ccc(C(=O)N[C@@H](C(=O)N[C@@H]2C(=O)N3[C@@H]2SC(C)(C)[C@@H]3C(=O)O)c2ccccc2)cc1` [Example 43], the MIC in [9] is recorded as ~ 16 U/ml; in assay [1], greater than 256 U/ml; in assay [2], greater than 256 U/ml; in [3] it was greater than 256 U/ml; in assay [4], less than 1 U/ml.
For the compound `CC1(C)S[C@@H]2[C@H](NC(=O)[C@H](NC(=O)c3ccccc3NC(=O)C3CC3)c3ccccc3)C(=O)N2[C@H]1C(=O)O` [Example 49], the MIC in assay [10] is less than 256 U/ml; in [7] it was greater than 256 U/ml; in [11] (Klebsiella 63, 24 hours, 37°C) it was greater than 256 U/ml; in assay [4], less than 1 U/ml.
For `CC1(C)S[C@@H]2[C@H](NC(=O)[C@H](NC(=O)c3ccccc3NC(=O)C3CCC3)c3ccccc3)C(=O)N2[C@H]1C(=O)O` [Example 50], the MIC in [7] is greater than 256 U/ml; in assay [4] it was less than 1 U/ml.
With `CC1(C)S[C@@H]2[C@H](NC(=O)[C@H](NC(=O)c3cccc(NC(=O)C4CC4)c3)c3ccccc3)C(=O)N2[C@H]1C(=O)O` [Example 51], the MIC in [9] is listed as ~ 16 U/ml; in assay [1] it was greater than 256 U/ml; in assay [2] it was greater than 256 U/ml; in assay [4], less than 1 U/ml.
Regarding `CC1(C)S[C@@H]2[C@H](NC(=O)[C@H](NC(=O)CSc3ccc(NC=O)cc3)c3ccccc3)C(=O)N2[C@H]1C(=O)O` [Example 59], the MIC is on record as ~ 4 U/ml in assay [9]; greater than 256 U/ml in assay [1]; greater than 256 U/ml in assay [2]; greater than 256 U/ml in assay [10]; greater than 256 U/ml in assay [3]; less than 1 U/ml in [4].
As for `CC1(C)S[C@@H]2[C@H](NC(=O)[C@H](NC(=O)CSc3ccc(NC(=O)C4CC4)cc3)c3ccccc3)C(=O)N2[C@H]1C(=O)O` [Example 60], the MIC was greater than 256 U/ml in assay [1], ~ 4 U/ml in assay [6] and ~ 256 U/ml in [10].
In the case of `CC1(C)S[C@@H]2[C@H](NC(=O)[C@H](NC(=O)CSc3ccc(NC(=O)C4CCC4)cc3)c3ccccc3)C(=O)N2[C@H]1C(=O)O` [Example 61], the MIC is greater than 256 U/ml in assay [1]; greater than 256 U/ml in assay [2]; greater than 256 U/ml in [3]; less than 1 U/ml in assay [4]; ~ 16 U/ml in [8].
On to `CC1(C)S[C@@H]2[C@H](NC(=O)[C@H](NC(=O)CNC(=O)c3ccc(NC=O)cc3)c3ccccc3)C(=O)N2[C@H]1C(=O)O` [Example 63], for which the MIC is on record as ~ 1 U/ml in [9]; greater than 256 U/ml in assay [1]; greater than 256 U/ml in assay [2]; less than 1 U/ml in assay [4]; ~ 4 U/ml in assay [8].
In the case of `CC1(C)S[C@@H]2[C@H](NC(=O)[C@H](NC(=O)CNC(=O)c3ccc(NC(=O)C4CCC4)cc3)c3ccccc3)C(=O)N2[C@H]1C(=O)O` [Example 65], the results for the MIC in assay [1], in assay [2] and in assay [4] were greater than 256 U/ml, greater than 256 U/ml and less than 1 U/ml, respectively.
Consider `CC1(C)S[C@@H]2[C@H](NC(=O)[C@H](NC(=O)CNC(=O)c3ccc(N)cc3)c3ccccc3)C(=O)N2[C@H]1C(=O)O` [Example 70], for which the MIC is greater than 256 U/ml in [1], greater than 256 U/ml in assay [2], greater than 256 U/ml in assay [3] and less than 1 U/ml in [4].
Regarding `CC1(C)S[C@@H]2[C@H](NC(=O)[C@H](NC(=O)c3cc(NC=O)cc(NC=O)c3)c3ccccc3)C(=O)N2[C@H]1C(=O)O` [Example 71], the MIC was ~ 4 U/ml in assay [9], greater than 256 U/ml in assay [1], greater than 256 U/ml in assay [2] and less than 1 U/ml in assay [4].
`CC1(C)S[C@@H]2[C@H](NC(=O)[C@H](NC(=O)c3cc(NC(=O)C4CC4)cc(NC(=O)C4CC4)c3)c3ccccc3)C(=O)N2[C@H]1C(=O)O` [Example 72]: the MIC is on record as greater than 256 U/ml in assay [1], greater than 256 U/ml in assay [2], less than 1 U/ml in assay [4] and ~ 16 U/ml in assay [8].
With `CC1(C)S[C@@H]2[C@H](NC(=O)[C@H](NC(=O)c3ccc(NC=O)c(NC=O)c3)c3ccccc3)C(=O)N2[C@H]1C(=O)O` [Example 74], the MIC in assay [7] is greater than 256 U/ml; in assay [4] it was less than 1 U/ml.
Regarding `CC1(C)S[C@@H]2[C@H](NC(=O)[C@H](NC(=O)c3ccc(NC(=O)C4CC4)c(NC(=O)C4CC4)c3)c3ccccc3)C(=O)N2[C@H]1C(=O)O` [Example 75], the MIC is given as greater than 256 U/ml in assay [1], greater than 256 U/ml in [2], less than 1 U/ml in assay [4] and ~ 16 U/ml in [8].
For `CC1(C)S[C@@H]2[C@H](NC(=O)[C@H](NC(=O)Cc3ccc(NC(=O)C4CCC4)cc3)c3ccccc3)C(=O)N2[C@H]1C(=O)O` [Example 76, sodium D(-)-α-[(4-cyclobutanecarbonylaminophenyl)-acetamido]-benzylpenicillin], the MIC is recorded as less than 4 U/ml in [9]; greater than 256 U/ml in assay [1]; greater than 256 U/ml in assay [2]; greater than 256 U/ml in assay [10]; greater than 256 U/ml in [3]; less than 1 U/ml in [4]. For the same compound, the MIC in assay [8] is reported as ~ 16 U/ml.
For `COc1cc(C=CC(=O)Nc2ccc(C(=O)N[C@@H](C(=O)N[C@@H]3C(=O)N4[C@@H]3SC(C)(C)[C@@H]4C(=O)O)c3ccccc3)cc2)cc(OC)c1OC` [Example 78, sodium D(-)-α-[4-(3,4,5-trimethoxycinnamoylamino-benzoylamino)]-benzylpenicillin], the “Activity against E. coli 14 (minimum inhibitory concentration)” value in assay [9] is on record as 2-4 U/ml. For the same compound, in [6], the “Activity against Proteus vulg. 1017 (minimum inhibitory concentration)” value was 128-256 U/ml. Moreover, the “Activity against Psdm. aerug. Walter (minimum inhibitory concentration)” value in [3] (24 hours' incubation) is 32-64 U/ml. Moreover, the “Activity against Klebs. 63 (minimum inhibitory concentration)” value in [11] is recorded as 32-64 U/ml.
In the case of `COc1cc(C(=O)Nc2ccc(C=CC(=O)N[C@@H](C(=O)N[C@@H]3C(=O)N4[C@@H]3SC(C)(C)[C@@H]4C(=O)O)c3ccccc3)cc2)cc(OC)c1OC` [Example 79, sodium D(-)-α-[4-(3,4,5-trimethoxybenzoylamino-cinnamoylamino)]-benzylpenicillin], in assay [9], the “Activity against E. coli 14 (minimum inhibitory concentration)” value is 1-2 U/ml. Also, in assay [6], the “Activity against Proteus vulg. 1017 (minimum inhibitory concentration)” value is on record as 128-256 U/ml. Further, in [10], the “Activity against Psdm. aerug. F 41 (minimum inhibitory concentration)” value is given as 8-16 U/ml. The “Activity against Klebs. 63 (minimum inhibitory concentration)” value in [11] is on record as 32-64 U/ml. Further, the “Activity against Staph. aureus 133 (minimum inhibitory concentration)” value in [4] is less than 1 U/ml.
Take `CC1(C)S[C@@H]2[C@H](NC(=O)[C@H](NC(=O)c3ccc(NC(=O)c4ccc(S(C)(=O)=O)cc4)cc3)c3ccccc3)C(=O)N2[C@H]1C(=O)O` [Example 80, sodium D(-)-α-[4-(p-methylsulphonylbenzoylamino)-benzoylamino]-benzylpenicillin]: the “Activity against E. coli 14 (minimum inhibitory concentration)” value in assay [9] was 4-8 U/ml. For the same compound, in assay [6], the “Activity against Proteus vulg. 1017 (minimum inhibitory concentration)” value is recorded as 128-256 U/ml. For the same compound, in assay [10], the “Activity against Psdm. aerug. F 41 (minimum inhibitory concentration)” value is listed as 32-64 U/ml. Besides, in [11], the “Activity against Klebs. 63 (minimum inhibitory concentration)” value is recorded as 32-64 U/ml. Besides, the “Activity against Staph. aureus 133 (minimum inhibitory concentration)” value in [4] was less than 1 U/ml.
In the case of `CC1(C)S[C@@H]2[C@H](NC(=O)[C@H](NC(=O)c3ccc(NC(=O)C4CCCC4)cc3)c3ccc(O)cc3)C(=O)N2[C@H]1C(=O)O` [Example 81], the “Activity against E. coli 14 (minimum inhibitory concentration)” value in assay [9] is 4-8 U/ml. Moreover, in assay [6], the “Activity against Proteus vulg. 1017 (minimum inhibitory concentration)” value is greater than 256 U/ml. In addition, the “Activity against Psdm. aerug. F 41 (minimum inhibitory concentration)” value in assay [10] is 32-64 U/ml. For the same compound, the “Activity against Klebs. 63 (minimum inhibitory concentration)” value in assay [11] is 128-256 U/ml. Besides, the “Activity against Staph. aureus 133 (minimum inhibitory concentration)” value in assay [4] was less than 1 U/ml.
